Patent publication US20120258974A1, “USE OF A2B ADENOSINE RECEPTOR ANTAGONISTS FOR TREATING HEART FAILURE AND ARRHYTHMIA IN POST-MYOCARDIAL INFARCTION PATIENTS” (GILEAD SCIENCES, INC., priority 2011, published 2012)
“Also recorded” adds a separate entry of the source.

Columns and labels:
[1] = system: human cardiac myocytes (HCM); experiment: NECA-induced IL-6 release from human cardiac myocytes (Example 7); format: cell-based; settings: for effect of NECA on HCM (IL-6 release): NECA in combination with antagonist
Procedure: This example uses human cardiac myocytes to test two other A2B adenosine receptor antagonists on their effect on NECA-induced IL-6 release.
Human cardiac myocytes (HCM) were treated with NECA alone, or in combination with Compound A, Compound B (N-[5-(1-cyclopropyl-2,6-dioxo-3-propyl-2,3,6,7-tetrahydro-1H-purin-8-yl)-pyridin-2-yl]-N-ethyl-nicotinamide, also known as ATL-801) or Compound C (2-(4-benzyloxy-phenyl)-N-[5-(2,6-dioxo-1,3-dipropyl-2,3,6,7-tetrahydro-1H-purin-8-yl)-1-methyl-1H-pyrazol-3-yl]-acetamide).

[2] = system: rats with MI (25 minutes coronary occlusion followed by reperfusion); experiment: Rat model of post-MI remodeling: serial echocardiograms (Example 6); format: in vivo
Procedure: The effects of Compound A in a rat model of post-MI remodeling and VT were determined. MI was caused by 25 minutes occlusion at the left anterior descending coronary ligation followed by reperfusion. One week later, rats were administered either vehicle or Compound A (100 mg/kg) once daily by oral gavage. Serial echocardiograms (ECHOs) to measure LV ejection fraction (LVEF), stroke volume and LV end systolic volume (LVESV) were obtained at baseline, 1 week and 5 week post-MI. Electrophysiological studies, optical mapping, histology and biomarker analysis were conducted at 5 week post-MI.

[3] = system: primary human cardiac fibroblasts (HCF); experiment: NECA-induced release of IL-6, collagen, ST-2, PAPPA and expression of fibrotic markers in human cardiac fibroblasts (Example 2); format: cell-based
Procedure: Real-time RT-PCR was performed as published using Stratagene PCR equipment (La Jolla, Calif.). Zhong H., et al., “A2B adenosine receptors increase cytokine release by bronchial smooth muscle cells,” American Journal of Respiratory Cell and Molecular Biology, 30(1): 118-125 (2004).
Expression of AdoR, α-smooth muscle actin and α-1 pro-collagen was determined using real-time RT-PCR. The concentration of IL-6, soluble ST-2 and PAPPA (Pregnancy-associated plasma protein A) in the cell supernatants were measured using ELISA, and the concentration of soluble collagen were determined using Sircol™ collagen assay.

For `CCCn1c(=O)n(C2CC2)c(=O)c2[nH]c(-c3ccc(N(CC)C(=O)c4cccnc4)nc3)nc21` [Compound B, N-[5-(1-cyclopropyl-2,6-dioxo-3-propyl-2,3,6,7-tetrahydro-1H-purin-8-yl)-pyridin-2-yl]-N-ethyl-nicotinamide], the “effect of NECA on HCM (IL-6 release)” value [1] was “completely abolished”.
`Cc1ccc(=O)n(-c2ccccc2)c1` [pirfenidone, reference compound] was tested, and the “reduction of LVEF” value ([2]; post-MI, Example 6 and FIG. 12B) was “only slowed” and the “LVESV (so in the source): increase and further reduction” value ([2]; rat post-MI, comparison with Compound A, FIG. 12B) was “did not increase; also recorded: only slightly inhibited”.
In the case of `CCCn1c(=O)c2[nH]c(-c3cc(NC(=O)Cc4ccc(OCc5ccccc5)cc4)nn3C)nc2n(CCC)c1=O` [Compound C], the “effect of NECA on HCM (IL-6 release)” value [1] is reported as “completely abolished”.
With N-ethylcarboxamide adenosine [NECA] the “IL-6 release from human cardiac myocytes” value ([1]; NECA alone) was “significantly increased”, the “soluble collagen concentration after stimulation” value ([3]; NECA 10 μM, basal 3.4±0.2) was 6.0 ± 0.4 µg/mL and the “production of collagen, fold induction” value ([3]; NECA 10 μM, p<0.05) was 1.8±0.1 fold. For the same compound, the “expression of α-1 pro-collagen” value ([3]; NECA 10 μM, real-time RT-PCR) was “increased”, the “expression of α-smooth muscle actin” value ([3]; NECA 10 μM, real-time RT-PCR) was “increased” and the “PAPPA concentration after stimulation” value ([3]; basal 1.4±0.5) was 6.2 ± 0.8 ng/mL. For the same compound, the “soluble ST-2 concentration after stimulation” value ([3]; basal 1.5±0.1) was 2.6 ± 0.1 ng/mL, the “release of IL-6, maximal increase over the basal level” value ([3]; concentration-dependent) was 2.4±0.1 fold and the “release of PAPPA, fold induction” value ([3]; p<0.05) was 4.4±0.6 fold. For the same compound, the “release of soluble ST-2, fold induction” value ([3]; p<0.05) was 1.7±0.1 fold.
